Experimental data: patent publication US20060211072A1, “Process, composition and kit for providing a stable whole blood calibrator/control” (Streck, Inc., priority 2005, published 2006)

What was measured:
[1] = test system: glycolysis in whole blood; conditions: final concentration about 0.9 to 20 mM in blood sample; testing within 16 hours; cited from earlier work
[2] = test system: glycolysis in red blood cells; assay: YSI glucose recovery of red blood cells treated with glyceraldehyde, washed and recombined with plasma and glucose; type: cell-based; conditions: RBCs treated with 20, 35 and 50 mM for 72 hours at 2-10 C; after 34 days (FIG. 6)
Method: FIG. 6 illustrates the YSI 2300 (reference analyzer) glucose concentration (mg/dL) of blood specimens at various concentrations of D,L glyceraldehyde respectively over 4 weeks at about 2° C. to about 10° C., wherein the control is untreated blood sample. Red blood cells were treated, washed and recombined with plasma and glucose.
RBC Treatment w/ Glyceraldehyde & Subsequent Removal
• 1) Employ fresh whole blood collected in standard anticoagulant (i.e. EDTA, heparin, sodium citrate) from a healthy adult population. Alternative blood sources may include bovine, avian, porcine, equine, goat, or alligator. • 2) Allow sufficient time for the natural enzymatic breakdown of glucose to occur (i.e. glycolysis). Deplete glucose concentration to less than about 20 mg/dl. Preferred storage at 2°-30° C. • 3) Separate RBC cellular component from plasma fraction via gravity settling and or centrifugation. If desired, the removed plasma fraction may be retained for reintroduction. • 4) Wash RBC cellular component with isotonic phosphate buffered saline solution (3×). Exchange diluent via centrifugation is preferred (15 minutes @ 1500 rpm (650×g). • 5) Adjust RBC concentration to approximately 4.0×10^6/mm^3±0.25×10^6/mm^3. […]

[3] = test system: glycolysis in whole blood; assay: YSI glucose concentration over time in whole blood specimens with D,L glyceraldehyde added; type: cell-based
Method: FIG. 4 illustrates the YSI glucose concentration (mg/dL) of blood specimens containing EDTA at various final concentrations of a mixture of D,L glyceraldehydes at 0.0, 1.0, 5.0, 10.0 and 20.0 mM, obtained over 4 weeks of real time testing at about 2° C. to about 10° C.;
FIG. 5 illustrates the YSI 2300 (reference analyzer) glucose concentration (mg/dL) of blood specimens treated at various concentrations of D,L glyceraldehyde over 3 weeks at about 2° C. to about 10° C., wherein the control is an untreated blood sample;
In one method, a sample containing a cellular component, (i.e. RBCs, WBCs) is collected into a microfuge or vacuum tube, e.g. […]®, (such as supplied by Becton, Dickinson and Company, Franklin Lakes, N.J.). The initial concentration of glucose in the sample can be 50 […].
The vacuum tube may contain any appropriate anticoagulant agent known to one of ordinary skill, including oxalate, EDTA, citrate, heparin or combination thereof, to form a suspension. If used, the anticoagulant may be added together simultaneously, or sequentially, to the sample.
The resulting suspension is incubated at about 2° C. to about 30° C. and allowed to undergo glycolysis until the glucose level is less than about 20 mg/dL. […]

Structure (SMILES) | glucose loss [1] | loss in glucose recovery [2] [%] | YSI glucose concentration loss ([3]; 20.0 mM D,L glyceraldehyde in EDTA, at 4 weeks, about 2-10 C (FIG. 4)) | YSI glucose concentration loss ([3]; 30.0 mM D,L glyceraldehyde in EDTA, glucose burned down then added back, at 3 weeks, about 2-10 C (FIG. 5))
O=CC(O)CO (stereo not shown) [glyceraldehyde, 2,3-dihydroxypropanal] | negligible glucose loss |  |  | 
O=CC(O)CO (racemic) [D,L glyceraldehyde, 2,3-dihydroxypropanal] |  | < 5 | less than 10% | less than 3.5%
